Measured values published in patent publication US20140038289A1, “NONADHESIVE SPHERE CELL CULTURE CONTAINER, SYSTEM, AND METHOD” (NATIONAL DEFENSE MEDICAL CENTER, priority 2012, published 2014).

Columns and labels:
Type in all cases: cell-based
[1] = tested on: human tongue cancer cell line SAS; test: Chemosensitivity assay (MTS), SAS parental cells and spheres; settings: Cisplatin doses up to 200 μM for 48 hours, FIG. 4(B)
Method: (§1) Cells were seeding in 10-cm cell culture dish at a density of 1×10^6 cells/dish. For the chemosensitivity assay, cells were treated with 10 to 200 μM Cisplatin (Sigma, St Louis, Mo., U.S.A.) for 48 hours. For the radiosensitivity assay, cells were irradiated using a CyberKnife® radiosurgery system (Accuray, Sunnyvale, Calif., U.S.A.) to deliver different doses (2-10 Gy). Relative survival fraction of cells was determined by MTS assay using the CellTiter® 96 Aqueous One Solution Cell Proliferation Assay kit (Promega, Madison, Wis., U.S.A.) after 36 hours of radiation treatment. Please refer to FIG. 4(A), which depicts the survival (%) of SAS and OECM-1 parental cells and their spheres after radiation treatment, and cell viability was evaluated after these cells were treated with radiation doses up to 10 Gy for 36 hours and were subject to a MTS assay. In FIG. 4(A), SAS and OECM-1 spheres were more radioresistant than their parental cells. Please refer to FIG. 4(B), which depicts the survival (%) of SAS and OECM-1 parental cells and their spheres after the Cisplatin treatment, and cell viability was evaluated after these cells were treated with Cisplatin doses up to 200 μM for 48 hours and were subject to a MTS (3-(4,5-dimethylthiazol-2-yl)-5-(3-carboxymethoxyphenyl)-2-(4-sulfophenyl)-2H-tetrazolium) assay.

[2] = tested on: human tongue cancer cell line SAS; test: Combined chemo- and radiotherapy (CCRT) treatment, SAS parental cells and spheres; settings: 20 μM Cisplatin for 24 hours followed by radiotherapy, FIG. 4(C)
Method: (§2) Cells were seeding in 10-cm cell culture dish at a density of 1×10^6 cells/dish. For the chemosensitivity assay, cells were treated with 10 to 200 μM Cisplatin (Sigma, St Louis, Mo., U.S.A.) for 48 hours. For the radiosensitivity assay, cells were irradiated using a CyberKnife® radiosurgery system (Accuray, Sunnyvale, Calif., U.S.A.) to deliver different doses (2-10 Gy). Relative survival fraction of cells was determined by MTS assay using the CellTiter® 96 Aqueous One Solution Cell Proliferation Assay kit (Promega, Madison, Wis., U.S.A.) after 36 hours of radiation treatment. To imitate the clinical condition, a combined chemo- and radiotherapy (CCRT) treatment was administered on SAS and OECM-1 parental cells and their spheres. Please refer to FIG. 4(C), which depicts the survival (%) of SAS and OECM-1 parental cells and their spheres after Cisplatin treatment followed by radiation treatment. This assay was performed by treating cells with chemotherapy using 20 μM Cisplatin for 24 hours followed by radiotherapy. […] Please refer to FIG. 4(D), which depicts the survival (%) of SAS and OECM-1 parental cells and their spheres after radiation treatment followed by Cisplatin treatment. […]

[3] = tested on: human oral squamous carcinoma cell line OECM-1; test: Chemosensitivity assay (MTS), OECM-1 parental cells and spheres; settings: Cisplatin doses up to 200 μM for 48 hours, FIG. 4(B)
Method: as §1

[4] = tested on: human oral squamous carcinoma cell line OECM-1; test: Combined chemo- and radiotherapy (CCRT) treatment, OECM-1 parental cells and spheres; settings: 20 μM Cisplatin for 24 hours followed by radiotherapy, FIG. 4(C)
Method: as §2

N.N.[Cl][Pt][Cl] [Cisplatin]
survival (%) after Cisplatin treatment, spheres vs parental cells [1]: spheres were more resistant to Cisplatin than their parental cells | survival (%) after Cisplatin treatment followed by radiation treatment, vs single treatment [2]: more effective in reducing the survival rate of the parental cells and spheres compared with the single treatment | survival (%) after Cisplatin treatment, spheres vs parental cells [3]: spheres were more resistant to Cisplatin than their parental cells | survival (%) after Cisplatin treatment followed by radiation treatment, vs single treatment [4]: more effective in reducing the survival rate of the parental cells and spheres compared with the single treatment
